Experimental data published in US7407958B2, “2-pyridyl substituted imidazoles as ALK5 and/or ALK4 inhibitors” (SK Chemicals Co., Ltd., priority 2004, dated 2008).

How the values were obtained:
[1] = biological target: PKCγ (Homo sapiens, UniProt P05129); assay: Protein kinase activity in vitro; format: biochemical
[2] = biological target: CHK2 (Homo sapiens, UniProt O96017); assay: Protein kinase activity in vitro; format: biochemical
[3] = biological target: p38δ (Homo sapiens, UniProt O15264); assay: Protein kinase activity in vitro; format: biochemical
[4] = biological target: PKCε (Homo sapiens, UniProt Q02156); assay: Protein kinase activity in vitro; format: biochemical
[5] = biological target: MEK1 (Homo sapiens, UniProt Q02750); assay: Protein kinase activity in vitro; format: biochemical
MEK1, sequence (Q02750 whole entry, species assumed): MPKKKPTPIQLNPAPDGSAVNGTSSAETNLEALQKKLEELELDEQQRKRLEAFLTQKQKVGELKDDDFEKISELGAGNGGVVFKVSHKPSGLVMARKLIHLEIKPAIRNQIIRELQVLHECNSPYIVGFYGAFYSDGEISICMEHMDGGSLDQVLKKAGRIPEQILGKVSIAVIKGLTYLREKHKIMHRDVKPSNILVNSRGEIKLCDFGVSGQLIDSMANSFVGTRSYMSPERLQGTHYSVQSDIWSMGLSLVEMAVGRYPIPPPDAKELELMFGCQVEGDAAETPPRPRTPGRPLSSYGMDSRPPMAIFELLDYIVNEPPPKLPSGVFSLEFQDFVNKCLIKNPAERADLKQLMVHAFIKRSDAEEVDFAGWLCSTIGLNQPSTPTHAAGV

[6] = biological target: Cdk2/Cyclin A (Homo sapiens, UniProt P24941); assay: Protein kinase activity in vitro; format: biochemical
[7] = biological target: IKK-2 (Homo sapiens, UniProt O14920); assay: Protein kinase activity in vitro; format: biochemical
[8] = biological target: PKCδ (Homo sapiens, UniProt Q05655); assay: Protein kinase activity in vitro; format: biochemical
[9] = biological target: Insulin receptor (Homo sapiens, UniProt P06213); assay: Protein kinase activity in vitro; format: biochemical
[10] = biological target: PKCζ (Homo sapiens, UniProt Q05513); assay: Protein kinase activity in vitro; format: biochemical
PKCζ, sequence (Q05513 whole entry): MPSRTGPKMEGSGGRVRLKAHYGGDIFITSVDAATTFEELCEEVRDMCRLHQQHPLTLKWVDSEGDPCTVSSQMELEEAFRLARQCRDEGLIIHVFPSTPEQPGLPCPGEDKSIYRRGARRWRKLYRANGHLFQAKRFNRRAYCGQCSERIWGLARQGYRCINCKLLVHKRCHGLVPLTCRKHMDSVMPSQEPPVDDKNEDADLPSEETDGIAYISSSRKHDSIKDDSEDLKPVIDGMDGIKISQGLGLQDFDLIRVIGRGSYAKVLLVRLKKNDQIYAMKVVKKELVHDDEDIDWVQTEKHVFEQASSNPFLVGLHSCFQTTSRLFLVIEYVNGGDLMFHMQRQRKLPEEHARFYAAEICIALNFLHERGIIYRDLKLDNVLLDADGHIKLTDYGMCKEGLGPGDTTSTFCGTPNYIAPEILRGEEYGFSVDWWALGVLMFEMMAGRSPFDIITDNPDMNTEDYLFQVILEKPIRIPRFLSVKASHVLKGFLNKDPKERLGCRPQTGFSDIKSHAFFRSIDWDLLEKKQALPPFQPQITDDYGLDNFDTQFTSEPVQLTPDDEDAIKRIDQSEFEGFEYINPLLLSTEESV

[11] = biological target: GSK-3β (Homo sapiens, UniProt P49841); assay: Protein kinase activity in vitro; format: biochemical
[12] = biological target: HER2 receptor (Homo sapiens, UniProt P04626); assay: Protein kinase activity in vitro; format: biochemical
[13] = biological target: PKCμ (Homo sapiens, UniProt Q15139); assay: Protein kinase activity in vitro; format: biochemical
PKCμ, sequence (Q15139 whole entry): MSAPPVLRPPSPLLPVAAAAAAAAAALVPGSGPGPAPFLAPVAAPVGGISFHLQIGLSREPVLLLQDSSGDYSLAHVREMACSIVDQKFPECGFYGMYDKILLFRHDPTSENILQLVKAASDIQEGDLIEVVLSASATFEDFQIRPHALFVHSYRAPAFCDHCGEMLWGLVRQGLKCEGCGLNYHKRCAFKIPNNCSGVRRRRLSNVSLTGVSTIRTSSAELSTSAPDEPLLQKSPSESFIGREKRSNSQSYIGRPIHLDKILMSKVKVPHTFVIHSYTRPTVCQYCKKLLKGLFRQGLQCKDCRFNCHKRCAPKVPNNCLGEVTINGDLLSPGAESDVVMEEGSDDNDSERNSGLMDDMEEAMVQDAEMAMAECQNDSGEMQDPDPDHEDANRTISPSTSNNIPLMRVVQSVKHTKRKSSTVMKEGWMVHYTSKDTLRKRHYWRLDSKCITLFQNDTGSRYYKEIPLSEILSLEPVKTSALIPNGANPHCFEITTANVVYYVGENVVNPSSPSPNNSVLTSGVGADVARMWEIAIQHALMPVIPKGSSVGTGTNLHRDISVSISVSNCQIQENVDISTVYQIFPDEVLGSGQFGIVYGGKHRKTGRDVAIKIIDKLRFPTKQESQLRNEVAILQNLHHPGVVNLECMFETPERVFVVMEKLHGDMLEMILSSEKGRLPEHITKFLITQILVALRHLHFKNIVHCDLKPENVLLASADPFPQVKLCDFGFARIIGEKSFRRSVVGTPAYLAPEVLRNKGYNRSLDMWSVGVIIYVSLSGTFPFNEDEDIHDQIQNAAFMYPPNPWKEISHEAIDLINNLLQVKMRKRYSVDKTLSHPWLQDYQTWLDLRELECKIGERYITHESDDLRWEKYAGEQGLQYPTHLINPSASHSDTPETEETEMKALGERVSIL

[14] = biological target: EGF Receptor (Homo sapiens, UniProt P00533); assay: Protein kinase activity in vitro; format: biochemical
[15] = test system: PKA, non-selective; assay: Protein kinase activity in vitro; format: biochemical
[16] = biological target: PKCα (Homo sapiens, UniProt P17252); assay: Protein kinase activity in vitro; format: biochemical
[17] = biological target: PDK1 (Homo sapiens, UniProt O15530); assay: Protein kinase activity in vitro; format: biochemical
[18] = test system: Ca^2+/Calmodulin-Dep. II; assay: Protein kinase activity in vitro; format: biochemical
[19] = biological target: p38β (Homo sapiens, UniProt Q15759); assay: Protein kinase activity in vitro; format: biochemical
[20] = biological target: IKK-1 (Homo sapiens, UniProt O15111); assay: Protein kinase activity in vitro; format: biochemical
[21] = biological target: Cdk1/Cyclin B (Homo sapiens, UniProt P06493); assay: Protein kinase activity in vitro; format: biochemical
[22] = biological target: JNK1α1 (Homo sapiens, UniProt P45983); assay: Protein kinase activity in vitro; format: biochemical
[23] = biological target: Lck (Homo sapiens, UniProt P06239); assay: Protein kinase activity in vitro; format: biochemical
[24] = biological target: p70^56k (Homo sapiens, UniProt P23443); assay: Protein kinase activity in vitro; format: biochemical
[25] = biological target: pp60^C-SRC (Homo sapiens, UniProt P12931); assay: Protein kinase activity in vitro; format: biochemical
[26] = biological target: JNK2α2 (Homo sapiens, UniProt P45984); assay: Protein kinase activity in vitro; format: biochemical
JNK2α2, sequence (P45984 whole entry): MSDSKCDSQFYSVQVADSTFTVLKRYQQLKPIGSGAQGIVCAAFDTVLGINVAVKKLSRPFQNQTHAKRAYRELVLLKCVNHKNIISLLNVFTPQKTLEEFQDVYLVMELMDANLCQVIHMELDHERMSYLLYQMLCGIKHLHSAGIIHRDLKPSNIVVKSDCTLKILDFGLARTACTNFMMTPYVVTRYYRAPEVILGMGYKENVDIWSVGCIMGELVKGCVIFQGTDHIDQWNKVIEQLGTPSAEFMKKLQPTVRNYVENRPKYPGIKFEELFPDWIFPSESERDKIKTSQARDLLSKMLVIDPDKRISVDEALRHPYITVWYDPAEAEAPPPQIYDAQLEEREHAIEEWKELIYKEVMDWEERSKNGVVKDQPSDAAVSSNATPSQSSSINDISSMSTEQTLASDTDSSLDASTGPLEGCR

[27] = biological target: PKCη (Homo sapiens, UniProt P24723); assay: Protein kinase activity in vitro; format: biochemical
[28] = biological target: CHK1 (Homo sapiens, UniProt O14757); assay: Protein kinase activity in vitro; format: biochemical
[29] = biological target: Lyn A (Homo sapiens, UniProt P07948); assay: Protein kinase activity in vitro; format: biochemical; settings: 10 μM (two lines printed)
Lyn A, sequence (P07948 whole entry, species assumed): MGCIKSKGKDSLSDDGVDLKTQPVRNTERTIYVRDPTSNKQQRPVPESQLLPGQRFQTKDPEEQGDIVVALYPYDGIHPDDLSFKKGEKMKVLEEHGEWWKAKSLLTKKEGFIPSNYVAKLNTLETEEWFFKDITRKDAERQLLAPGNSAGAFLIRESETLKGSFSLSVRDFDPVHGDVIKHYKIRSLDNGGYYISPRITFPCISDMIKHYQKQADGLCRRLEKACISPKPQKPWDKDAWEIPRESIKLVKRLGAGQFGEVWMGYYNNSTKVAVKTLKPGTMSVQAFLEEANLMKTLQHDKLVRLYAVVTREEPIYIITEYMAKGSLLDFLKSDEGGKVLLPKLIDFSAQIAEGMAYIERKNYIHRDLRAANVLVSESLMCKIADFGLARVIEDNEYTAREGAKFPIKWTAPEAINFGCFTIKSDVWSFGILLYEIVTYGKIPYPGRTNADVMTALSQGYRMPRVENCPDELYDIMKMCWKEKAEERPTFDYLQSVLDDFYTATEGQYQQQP

[30] = biological target: ERK1 (Homo sapiens, UniProt P27361); assay: Protein kinase activity in vitro; format: biochemical
[31] = biological target: p38γ (Homo sapiens, UniProt P53778); assay: Protein kinase activity in vitro; format: biochemical
[32] = biological target: ALK5 (Homo sapiens, UniProt P36897, T204D); assay: biochemical
ALK5, sequence (P36897 34-503 T204D, species assumed): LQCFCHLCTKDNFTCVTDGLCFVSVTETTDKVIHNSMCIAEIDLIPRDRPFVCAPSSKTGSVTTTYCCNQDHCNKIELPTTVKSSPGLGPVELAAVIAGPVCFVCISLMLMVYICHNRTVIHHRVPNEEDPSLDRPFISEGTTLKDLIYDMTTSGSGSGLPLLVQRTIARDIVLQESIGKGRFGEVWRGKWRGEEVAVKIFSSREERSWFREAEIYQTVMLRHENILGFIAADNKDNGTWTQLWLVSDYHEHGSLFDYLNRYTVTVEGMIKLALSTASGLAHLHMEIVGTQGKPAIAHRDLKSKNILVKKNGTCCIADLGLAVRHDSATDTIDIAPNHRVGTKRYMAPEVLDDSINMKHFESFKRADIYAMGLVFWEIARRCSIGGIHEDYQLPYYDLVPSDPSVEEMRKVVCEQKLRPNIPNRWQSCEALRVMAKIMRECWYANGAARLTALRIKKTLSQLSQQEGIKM
Protocol: The His-tagged, constitutively active ALK5 (T204D) and Smad3 full protein were expressed in insect cells using the Invitrogen BacNBlue baculovirus expression system. Expressed proteins were purified with Qiagen Ni-NTA resin column. The purified smad3 protein 200 ng was mixed with 100 μL of 0.1 M sodium bicarbonate coating buffer and coated into Flash-Plates by pipetting. Plates were covered and incubated at 4° C. for 16 hours. Then the plates were washed 3 times with 200 μL of coating buffer and allowed to block in 1% BSA in PBS at room temperature for 1 hour. The purified ALK5 protein 100 ng was mixed with 100 μL of reaction buffer containing 20 mM Tris-HCl (pH 7.4), 5 mM MgCl2, 1 mM CaCl2, 1 mM DTT, 1 μM ATP and 2 μCi ?-^32p-ATP, and 1 μL of each test compound of formula (I) prepared in 100% DMSO solution at different concentrations. The assay was then initiated with the addition of ALK5 reaction mixture into Smad3-coated Flash-Plates, followed by incubation at 30° C. for 3 hours. After incubation, the assay buffer was removed and washed 3 times with 200 μL of 10 mM sodium pyrophosphate solution. Then, the Flash-Plates were air-dried and counted on a Packard TopCount.

[33] = biological target: Cdk5/p35 (Homo sapiens, UniProt Q00535); assay: Protein kinase activity in vitro; format: biochemical
[34] = biological target: PKCβ2 (Homo sapiens, UniProt P05771); assay: Protein kinase activity in vitro; format: biochemical
[35] = biological target: PKCβ1 (Homo sapiens, UniProt P05771); assay: Protein kinase activity in vitro; format: biochemical
[36] = biological target: p38α (Homo sapiens, UniProt Q16539); assay: Protein kinase activity in vitro; format: biochemical
p38α, sequence (Q16539 whole entry): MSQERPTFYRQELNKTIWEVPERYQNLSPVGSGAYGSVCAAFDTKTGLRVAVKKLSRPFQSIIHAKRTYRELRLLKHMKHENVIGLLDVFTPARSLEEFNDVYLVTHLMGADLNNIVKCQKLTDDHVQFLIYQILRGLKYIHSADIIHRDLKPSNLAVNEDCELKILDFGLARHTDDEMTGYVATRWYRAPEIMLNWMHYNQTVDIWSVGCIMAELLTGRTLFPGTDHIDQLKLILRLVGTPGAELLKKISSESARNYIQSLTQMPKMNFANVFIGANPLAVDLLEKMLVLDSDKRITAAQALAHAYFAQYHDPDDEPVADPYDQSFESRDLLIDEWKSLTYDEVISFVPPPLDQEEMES

[37] = biological target: PKBα/Akt1 (Homo sapiens, UniProt P31749); assay: Protein kinase activity in vitro; format: biochemical

CHK2, sequence (O96017 whole entry, species assumed): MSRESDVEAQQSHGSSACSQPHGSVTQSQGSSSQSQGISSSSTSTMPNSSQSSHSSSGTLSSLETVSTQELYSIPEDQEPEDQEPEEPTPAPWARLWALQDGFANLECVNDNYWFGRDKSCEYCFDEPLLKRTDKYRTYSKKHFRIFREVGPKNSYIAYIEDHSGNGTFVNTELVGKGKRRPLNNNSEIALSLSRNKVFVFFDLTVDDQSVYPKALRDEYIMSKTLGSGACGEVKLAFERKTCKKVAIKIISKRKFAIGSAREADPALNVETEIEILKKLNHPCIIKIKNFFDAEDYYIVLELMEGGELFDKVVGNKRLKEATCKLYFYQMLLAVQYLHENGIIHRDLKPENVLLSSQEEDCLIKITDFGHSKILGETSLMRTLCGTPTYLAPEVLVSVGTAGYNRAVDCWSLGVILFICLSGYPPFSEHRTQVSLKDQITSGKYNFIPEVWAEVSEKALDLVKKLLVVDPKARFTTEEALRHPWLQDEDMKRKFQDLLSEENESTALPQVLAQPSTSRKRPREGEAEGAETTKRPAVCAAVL

Cc1cccc(-c2[nH]c(Cc3cccc(C(N)=O)c3)nc2-c2ccc3nccnc3c2)n1 [Example 41, 3-((5-(6-methylpyridin-2-yl)-4-(quinoxalin-6-yl)-1(3)H-imidazol-2-yl)methyl)benzamide]
inhibition at 10 µM [1]: 3% | inhibition at 10 µM [2]: 18% | inhibition at 10 µM [3]: -19% | inhibition at 10 µM [4]: 1% | inhibition at 1 µM ([5]; 1 μM): 4% | inhibition at 10 µM ([5]; 10 μM): 66% | inhibition at 10 µM [6]: 6% | inhibition at 10 µM [7]: 1% | inhibition at 10 µM [8]: 3% | inhibition at 10 µM [9]: 15% | inhibition at 10 µM [10]: -9% | inhibition at 10 µM [11]: 21% | inhibition at 10 µM [12]: 11% | inhibition at 1 µM ([13]; 1 μM): 31% | inhibition at 10 µM ([13]; 10 μM): 64% | inhibition at 10 µM [14]: 2% | % inhibition at 10 μM [15]: 27% | inhibition at 10 µM [16]: -6% | inhibition at 10 µM [17]: 3% | % inhibition at 10 μM [18]: 1% | inhibition at 10 µM [19]: 48% | inhibition at 10 µM [20]: 2% | inhibition at 10 µM [21]: -3% | inhibition at 10 µM [22]: 11% | inhibition at 10 µM [23]: 17% | inhibition at 10 µM [24]: -3% | inhibition at 10 µM [25]: -3% | inhibition at 1 µM ([26]; 1 μM): 40% | inhibition at 10 µM ([26]; 10 μM): 81% | inhibition at 10 µM [27]: -6% | inhibition at 10 µM [28]: 10% | inhibition at 10 µM [29]: 37% | % inhibition at 10 μM ([29]; 10 µM): 42% | inhibition at 10 µM [30]: 51% | inhibition at 10 µM [31]: 15% | IC50 [32]: 5.3 nM | inhibition at 10 µM [33]: -2% | inhibition at 10 µM [34]: -2% | inhibition at 10 µM [35]: 10% | inhibition at 1 µM ([36]; 1 μM): 25% | inhibition at 10 µM ([36]; 10 μM): 76% | inhibition at 10 µM [37]: 17%
